Test results published in patent US20230287044A1, “NOVEL ANTIBACTERIAL PEPTIDE AND USE THEREOF” (priority 2020, published 2023).
≈ marks a conversion by molar mass, not a printed value. Square brackets hold non-standard residues; d marks the D form. Peptide text beside a SMILES is read from it.

Tests used:
[1] = test system: MRAB (A. baumannii) ATCC BAA 1605; assay type: cell-based, Acinetobacter baumannii; settings: ATCC BAA 1605, 18 h
Description: (§1) The minimum growth inhibitory concentrations of the antibacterial peptides of the present invention weremeasured, and the results are shown in Table 3 below.
(§2) Specifically, the strains were grown in CAMHB until the midlog phase, and then diluted with PBS buffer to 1× 10^6 cfu/ml to prepare the bacterial solution, and the antibacterial peptide prepared in Example 1above was diluted with CAMHB to 80 µM, 40 µM, 20 µM, 10 µM, 5 µM, 2.5 µM, 1.25 µM and 0.63 µM, and then the bacterial solution was treated with the same volume.
(§3) The results are the average value of three independent experiments.

[2] = test system: VRE (E. faecalis) ATCC 51575; assay type: cell-based, Enterococcus faecalis; settings: ATCC 51575, 18 h
Description: as §1, §2, §3

[3] = test system: MRSA (S. aureus) KCCM 40510; assay type: cell-based, Staphylococcus aureus; settings: KCCM 40510, 18 h
Description: as §1, §2, §3

[4] = test system: MRPA (P. aeruginosa) CCARM 2180; assay type: cell-based, Pseudomonas aeruginosa; settings: CCARM 2180, 18 h
Description: as §1, §2, §3

| SMILES | MIC MRAB (A. baumannii) ATCC BAA 1605 [1] | MIC VRE (E. faecalis) ATCC 51575 [2] | MIC MRSA (S. aureus) KCCM 40510 [3] | MIC MRPA (P. aeruginosa) CCARM 2180 [4] |
| --- | --- | --- | --- | --- |
| CC[C@@H](C)[C@@H](NC(=O)[C@@H](Cc1c[nH]c2ccccc12)NC(=O)[C@@H](CCCCN)NC(=O)[C@@H](CCCNC(=N)N)NC(=O)[C@H](N)CCCNC(=N)N)C(=O)N[C@H](Cc1c[nH]c2ccccc12)C(=O)N[C@H](Cc1c[nH]c2ccccc12)C(=O)N[C@H](CC(C)C)C(=O)N[C@H](Cc1c[nH]c2ccccc12)C(=O)N[C@H](CCCCN)C(=O)N[C@H](CCCCN)C(=O)N[C@H](CCCCN)C(N)=O [KSH52, rrkwiwwlwkkk] (H-[dR][dR][dK][dW][dI][dW][dW][dL][dW][dK][dK][dK]-NH2; N-terminus assumed) | 1.25 µM (≈ 2.27 µg/mL) | 5 µM (≈ 9.07 µg/mL) | 5 µM (≈ 9.07 µg/mL) | 5 µM (≈ 9.07 µg/mL) |
| CC[C@@H](C)[C@@H](NC(=O)[C@@H](Cc1c[nH]c2ccccc12)NC(=O)[C@@H](CCCNC(=N)N)NC(=O)[C@H](N)CCCNC(=N)N)C(=O)N[C@H](Cc1c[nH]c2ccccc12)C(=O)N[C@@H](C(=O)N[C@H](CC(C)C)C(=O)N[C@H](Cc1c[nH]c2ccccc12)C(=O)N[C@H](CCCNC(=N)N)C(N)=O)C(C)C [KSH54, rrwiwvlwr] (H-[dR][dR][dW][dI][dW][dV][dL][dW][dR]-NH2; N-terminus assumed) | 0.63 µM (≈ 0.863 µg/mL) | 0.63 µM (≈ 0.863 µg/mL) | 0.63 µM (≈ 0.863 µg/mL) | 2.5 µM (≈ 3.42 µg/mL) |
| CC[C@@H](C)[C@@H](NC(=O)[C@@H](Cc1c[nH]c2ccccc12)NC(=O)[C@@H](CCCNC(=N)N)NC(=O)[C@H](N)CCCNC(=N)N)C(=O)N[C@H](Cc1c[nH]c2ccccc12)C(=O)N[C@@H](C(=O)N[C@H](CC(C)C)C(=O)N[C@H](Cc1c[nH]c2ccccc12)C(=O)N[C@@H](CCCNC(=N)N)C(N)=O)C(C)C [KSH55, rrwiwvlwR] (H-[dR][dR][dW][dI][dW][dV][dL][dW]R-NH2; N-terminus assumed) | 0.63 µM (≈ 0.863 µg/mL) | 0.63 µM (≈ 0.863 µg/mL) | 0.63 µM (≈ 0.863 µg/mL) | 2.5 µM (≈ 3.42 µg/mL) |
| CC(C)[C@@H](NC(=O)[C@@H](Cc1c[nH]c2ccccc12)NC(=O)[C@@H](CCCNC(=N)N)NC(=O)[C@H](N)CCCNC(=N)N)C(=O)N[C@H](Cc1c[nH]c2ccccc12)C(=O)N[C@@H](C(=O)N[C@@H](C(=O)N[C@H](Cc1c[nH]c2ccccc12)C(=O)N[C@H](CCCCN)C(N)=O)C(C)C)C(C)C [KSH56, rrwvwvvwk] (H-[dR][dR][dW][dV][dW][dV][dV][dW][dK]-NH2; N-terminus assumed) | 1.25 µM (≈ 1.64 µg/mL) | 1.25 µM (≈ 1.64 µg/mL) | 1.25 µM (≈ 1.64 µg/mL) | 5 µM (≈ 6.57 µg/mL) |
| CC(C)[C@@H](NC(=O)[C@@H](Cc1c[nH]c2ccccc12)NC(=O)[C@@H](CCCNC(=N)N)NC(=O)[C@@H](CCCNC(=N)N)NC(=O)[C@H](N)CCCNC(=N)N)C(=O)N[C@H](Cc1c[nH]c2ccccc12)C(=O)N[C@@H](C(=O)N[C@@H](C(=O)N[C@H](Cc1c[nH]c2ccccc12)C(=O)N[C@H](CCCCN)C(N)=O)C(C)C)C(C)C [KSH57, rrrwvwvvwk] (H-[dR][dR][dR][dW][dV][dW][dV][dV][dW][dK]-NH2; N-terminus assumed) | 5 µM (≈ 7.35 µg/mL) | 20 µM (≈ 29.4 µg/mL) | 20 µM (≈ 29.4 µg/mL) | 20 µM (≈ 29.4 µg/mL) |
| CC(C)[C@@H](NC(=O)[C@@H](Cc1c[nH]cn1)NC(=O)[C@@H](CCCNC(=N)N)NC(=O)[C@@H](CCCNC(=N)N)NC(=O)[C@H](N)CCCNC(=N)N)C(=O)N[C@H](Cc1c[nH]cn1)C(=O)N[C@@H](C(=O)N[C@@H](C(=O)N[C@H](Cc1c[nH]c2ccccc12)C(=O)N[C@H](CCCCN)C(N)=O)C(C)C)C(C)C [KSH58, rrrhvhvvwk] (H-[dR][dR][dR][dH][dV][dH][dV][dV][dW][dK]-NH2; N-terminus assumed) | 5 µM (≈ 6.86 µg/mL) | 10 µM (≈ 13.7 µg/mL) | 10 µM (≈ 13.7 µg/mL) | 10 µM (≈ 13.7 µg/mL) |
| CC[C@@H](C)[C@@H](NC(=O)[C@@H](Cc1c[nH]c2ccccc12)NC(=O)[C@H](NC(=O)[C@@H](Cc1c[nH]c2ccccc12)NC(=O)[C@@H](CCCNC(=N)N)NC(=O)[C@@H](CCCNC(=N)N)NC(=O)[C@H](N)CCCNC(=N)N)[C@H](C)CC)C(=O)N[C@H](CC(C)C)C(=O)N[C@H](Cc1c[nH]c2ccccc12)C(N)=O [KSH59, rrrwiwilw] (H-[dR][dR][dR][dW][dI][dW][dI][dL][dW]-NH2; N-terminus assumed) | 1.25 µM (≈ 1.73 µg/mL) | 0.63 µM (≈ 0.872 µg/mL) | 0.63 µM (≈ 0.872 µg/mL) | 2.5 µM (≈ 3.46 µg/mL) |
| CC(C)[C@@H](NC(=O)[C@H](N)Cc1c[nH]c2ccccc12)C(=O)N[C@@H](C(=O)N[C@H](Cc1c[nH]c2ccccc12)C(=O)N[C@@H](C(=O)N[C@H](Cc1c[nH]c2ccccc12)C(=O)N[C@H](CCCCN)C(=O)N[C@H](CCCCN)C(=O)N[C@H](CCCCN)C(N)=O)C(C)C)C(C)C [KSH66, wvvwvwkkk] (H-[dW][dV][dV][dW][dV][dW][dK][dK][dK]-NH2; N-terminus assumed) | 1.25 µM (≈ 1.57 µg/mL) | 0.63 µM (≈ 0.792 µg/mL) | 1.25 µM (≈ 1.57 µg/mL) | >10 µM |
| CC(C)[C@@H](NC(=O)[C@H](N)Cc1c[nH]c2ccccc12)C(=O)N[C@@H](C(=O)N[C@H](Cc1c[nH]c2ccccc12)C(=O)N[C@@H](C(=O)N[C@@H](C(=O)N[C@H](Cc1c[nH]c2ccccc12)C(=O)N[C@H](CCCCN)C(=O)N[C@H](CCCCN)C(=O)N[C@H](CCCCN)C(N)=O)C(C)C)C(C)C)C(C)C [KSH67, wvvwvvwkkk] (H-[dW][dV][dV][dW][dV][dV][dW][dK][dK][dK]-NH2; N-terminus assumed) | 1.25 µM (≈ 1.7 µg/mL) | 0.63 µM (≈ 0.855 µg/mL) | 0.63 µM (≈ 0.855 µg/mL) | 5 µM (≈ 6.78 µg/mL) |
| CC[C@@H](C)[C@@H](NC(=O)[C@@H](Cc1c[nH]c2ccccc12)NC(=O)[C@@H](CCCNC(=N)N)NC(=O)[C@@H](CCCNC(=N)N)NC(=O)[C@H](N)CCCNC(=N)N)C(=O)N[C@H](Cc1c[nH]c2ccccc12)C(=O)N[C@@H](C(=O)N[C@H](CC(C)C)C(=O)N[C@H](Cc1c[nH]c2ccccc12)C(=O)N[C@H](CCCCN)C(=O)N[C@H](CC(N)=O)C(N)=O)C(C)C [KSH68, rrrwiwvlwkn] (H-[dR][dR][dR][dW][dI][dW][dV][dL][dW][dK][dN]-NH2; N-terminus assumed) | 0.63 µM (≈ 1.02 µg/mL) | 1.25 µM (≈ 2.01 µg/mL) | 1.25 µM (≈ 2.01 µg/mL) | 2.5 µM (≈ 4.03 µg/mL) |
| CC[C@@H](C)[C@@H](NC(=O)[C@@H](Cc1c[nH]c2ccccc12)NC(=O)[C@@H](C)NC(=O)[C@@H](C)NC(=O)[C@H](N)Cc1c[nH]c2ccccc12)C(=O)NCC(=O)N[C@H](CC(C)C)C(=O)N[C@H](CCCNC(=N)N)C(=O)N[C@H](CCCNC(=N)N)C(=O)N[C@H](CCCNC(=N)N)C(N)=O [KSH69, waawiglrrr] (H-[dW][dA][dA][dW][dI]G[dL][dR][dR][dR]-NH2; N-terminus assumed) | 2.5 µM (≈ 3.21 µg/mL) | >10 µM | >10 µM | >10 µM |
| CC(C)[C@@H](NC(=O)[C@H](N)Cc1c[nH]c2ccccc12)C(=O)N[C@H](C)C(=O)N[C@H](Cc1c[nH]c2ccccc12)C(=O)N[C@H](C)C(=O)N[C@@H](C(=O)N[C@H](Cc1c[nH]c2ccccc12)C(=O)N[C@H](CCCNC(=N)N)C(=O)N[C@H](CCCNC(=N)N)C(=O)N[C@H](CCCNC(=N)N)C(N)=O)C(C)C [KSH71, wvawavwrrr] (H-[dW][dV][dA][dW][dA][dV][dW][dR][dR][dR]-NH2; N-terminus assumed) | 1.25 µM (≈ 1.73 µg/mL) | 2.5 µM (≈ 3.46 µg/mL) | 5 µM (≈ 6.92 µg/mL) | >10 µM |
| CC(C)[C@@H](NC(=O)[C@H](N)Cc1c[nH]c2ccccc12)C(=O)N[C@@H](C(=O)N[C@H](Cc1c[nH]c2ccccc12)C(=O)N[C@H](C)C(=O)N[C@H](C)C(=O)N[C@H](Cc1c[nH]c2ccccc12)C(=O)N[C@H](CCCNC(=N)N)C(=O)N[C@H](CCCNC(=N)N)C(=O)N[C@H](CCCNC(=N)N)C(N)=O)C(C)C [KSH72, wvvwaawrrr] (H-[dW][dV][dV][dW][dA][dA][dW][dR][dR][dR]-NH2; N-terminus assumed) | 2.5 µM (≈ 3.46 µg/mL) | 5 µM (≈ 6.92 µg/mL) | 2.5 µM (≈ 3.46 µg/mL) | 10 µM (≈ 13.8 µg/mL) |
| CC[C@@H](C)[C@@H](NC(=O)[C@@H](Cc1c[nH]c2ccccc12)NC(=O)[C@@H](CCCNC(=N)N)NC(=O)[C@@H](CCCNC(=N)N)NC(=O)[C@H](N)CCCNC(=N)N)C(=O)N[C@H](Cc1c[nH]c2ccccc12)C(=O)N[C@@H](C(=O)N[C@H](CC(C)C)C(=O)N[C@H](Cc1c[nH]c2ccccc12)C(N)=O)C(C)C [KSH73, rrrwiwvlw] (H-[dR][dR][dR][dW][dI][dW][dV][dL][dW]-NH2; N-terminus assumed) | 2.5 µM (≈ 3.42 µg/mL) | 1.25 µM (≈ 1.71 µg/mL) | 1.25 µM (≈ 1.71 µg/mL) | 2.5 µM (≈ 3.42 µg/mL) |
